# Data taken from patent US20230097866A1, “BACTERIAL TOPOISOMERASE INHIBITORS DERIVED FROM ISOMANNIDE” (Ohio State Innovation Foundation, priority 2020, published 2023).
# Like-named read-outs stand apart in the source and are kept apart here.
# Assays:
# CYP2B6 = target: T1, CYP2B6 (Homo sapiens, UniProt P20813); test: CYP450 inhibition in human liver microsomes, CYP2B6; type: in vitro ADME; details: 10 μM
# T1 construct: incubated with human liver microsomes (mixed gender, pool of 50 donors, 0.1 mg/mL); from tissue; host or cells: human liver microsomes, pool of 50 donors
# T1 sequence (P20813 whole entry): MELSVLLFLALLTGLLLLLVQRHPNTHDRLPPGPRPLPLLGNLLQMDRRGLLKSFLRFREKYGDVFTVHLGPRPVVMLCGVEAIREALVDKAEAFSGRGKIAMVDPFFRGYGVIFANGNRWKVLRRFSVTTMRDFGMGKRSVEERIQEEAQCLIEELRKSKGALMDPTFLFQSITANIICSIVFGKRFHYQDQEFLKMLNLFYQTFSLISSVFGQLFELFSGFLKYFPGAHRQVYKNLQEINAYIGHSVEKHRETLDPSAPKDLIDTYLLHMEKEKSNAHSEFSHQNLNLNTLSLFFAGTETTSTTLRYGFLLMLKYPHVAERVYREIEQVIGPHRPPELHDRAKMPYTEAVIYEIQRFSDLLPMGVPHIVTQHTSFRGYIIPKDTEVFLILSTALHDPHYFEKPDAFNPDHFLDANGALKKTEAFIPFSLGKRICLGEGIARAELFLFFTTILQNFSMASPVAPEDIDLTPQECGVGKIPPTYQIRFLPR
# Procedure: (§1) CYP450 inhibition assays was conducted using individual enzyme substrates and inhibitors instead of a cocktail to avoid interferences. CYP450 isoforms tested included the following: CYP1A2, CYP2B6, CYP2C8, CYP2C9, CYP2C19, CYP2D6, and CYP3A4. Each test compound was screened at a final concentration of 10 μM. Each test compound was incubated with human liver microsomes (mixed gender, pool of 50 donors, 0.1 mg/mL), CYP450-selective probe substrates, and co-factors (NADPH, MgCl2) in phosphate buffer (pH 7.4) for 10-30 min in a 96-well plate at 37° C. The reactions were stopped by transferring the reaction mixture to acetonitrile/methanol. Samples were mixed and centrifuged, and the supernatants analyzed by LC-MS/MS to quantify percent inhibition relative to vehicle control.
# hKCNQ1/hminK = target: T2, hKCNQ1/hminK (Homo sapiens, UniProt P51787); test: KCNQ1/hminK QPatch CiPA assay; type: cell-based; details: mean, duplicate, read-out: % Inhibition KCNQ1 (peak current)
# T2 construct: expressed in transfected cells
# Text: Early drug discovery programs commonly assess hERG inhibition as the only indicator of potential cardiovascular safety concerns. Researchers have recently recommended a more rigorous evaluation of multiple cardiac ion channels to provide a more comprehensive cardiovascular risk assessment (Fermini, B., et al., A New Perspective in the Field of Cardiac Safety Testing through the Comprehensive In Vitro Proarrhythmia Assay Paradigm. J. Biomolec. Screening 2016, 21, 1-11). Given the promising initial results for 6, further evaluation was undertaken (in duplicate) in a Comprehensive in vitro Proarrhythmia Assay (CiPA) eight assay panel run on the QPatch HT (Sophion, Denmark) automated patch clamp system at three concentrations (3, 30, and 100 μM). All data were filtered for seal quality, seal drop, and current amplitude. A stock solution of the test compound at 30 mM concentration was prepared in DMSO.
# The parameters measured were the maximum outward current evoked on stepping to 60 mV from the test pulse. The peak current amplitude was calculated before and after compound addition and the amount of block was assessed by dividing the Test compound current amplitude by the Control current amplitude. Control is the mean hKCNQ1/hminK current amplitude collected 15 seconds at the end of the control; Test Compound is the mean hKCNQ1/hminK current amplitude collected in the presence of test compound at each concentration. The positive control was chromanol 293B.
# CYP2C9 = target: T3, CYP2C9 (Homo sapiens, UniProt P11712); test: CYP450 inhibition in human liver microsomes, CYP2C9; type: in vitro ADME; details: 10 μM
# T3 construct: incubated with human liver microsomes (mixed gender, pool of 50 donors, 0.1 mg/mL); from tissue; host or cells: human liver microsomes, pool of 50 donors
# T3 sequence (P11712 whole entry): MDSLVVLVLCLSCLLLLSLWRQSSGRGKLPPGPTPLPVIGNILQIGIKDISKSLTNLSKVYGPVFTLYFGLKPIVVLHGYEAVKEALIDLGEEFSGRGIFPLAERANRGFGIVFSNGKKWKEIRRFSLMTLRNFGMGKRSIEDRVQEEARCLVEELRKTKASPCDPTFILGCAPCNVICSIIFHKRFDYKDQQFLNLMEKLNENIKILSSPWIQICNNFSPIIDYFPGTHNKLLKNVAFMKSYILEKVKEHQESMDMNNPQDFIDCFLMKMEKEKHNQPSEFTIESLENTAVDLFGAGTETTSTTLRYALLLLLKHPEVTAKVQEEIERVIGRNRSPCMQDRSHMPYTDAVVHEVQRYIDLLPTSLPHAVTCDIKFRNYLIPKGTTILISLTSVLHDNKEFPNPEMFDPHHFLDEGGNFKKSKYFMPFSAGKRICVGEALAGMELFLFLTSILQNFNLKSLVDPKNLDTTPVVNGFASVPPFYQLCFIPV
# Procedure: as §1
# hERG = hERG (Homo sapiens, UniProt Q12809); test: hERG IC50, IonWorks Barracuda (Charles River); details: 6 versus 24
# Chain of hERG (Q12809 whole entry): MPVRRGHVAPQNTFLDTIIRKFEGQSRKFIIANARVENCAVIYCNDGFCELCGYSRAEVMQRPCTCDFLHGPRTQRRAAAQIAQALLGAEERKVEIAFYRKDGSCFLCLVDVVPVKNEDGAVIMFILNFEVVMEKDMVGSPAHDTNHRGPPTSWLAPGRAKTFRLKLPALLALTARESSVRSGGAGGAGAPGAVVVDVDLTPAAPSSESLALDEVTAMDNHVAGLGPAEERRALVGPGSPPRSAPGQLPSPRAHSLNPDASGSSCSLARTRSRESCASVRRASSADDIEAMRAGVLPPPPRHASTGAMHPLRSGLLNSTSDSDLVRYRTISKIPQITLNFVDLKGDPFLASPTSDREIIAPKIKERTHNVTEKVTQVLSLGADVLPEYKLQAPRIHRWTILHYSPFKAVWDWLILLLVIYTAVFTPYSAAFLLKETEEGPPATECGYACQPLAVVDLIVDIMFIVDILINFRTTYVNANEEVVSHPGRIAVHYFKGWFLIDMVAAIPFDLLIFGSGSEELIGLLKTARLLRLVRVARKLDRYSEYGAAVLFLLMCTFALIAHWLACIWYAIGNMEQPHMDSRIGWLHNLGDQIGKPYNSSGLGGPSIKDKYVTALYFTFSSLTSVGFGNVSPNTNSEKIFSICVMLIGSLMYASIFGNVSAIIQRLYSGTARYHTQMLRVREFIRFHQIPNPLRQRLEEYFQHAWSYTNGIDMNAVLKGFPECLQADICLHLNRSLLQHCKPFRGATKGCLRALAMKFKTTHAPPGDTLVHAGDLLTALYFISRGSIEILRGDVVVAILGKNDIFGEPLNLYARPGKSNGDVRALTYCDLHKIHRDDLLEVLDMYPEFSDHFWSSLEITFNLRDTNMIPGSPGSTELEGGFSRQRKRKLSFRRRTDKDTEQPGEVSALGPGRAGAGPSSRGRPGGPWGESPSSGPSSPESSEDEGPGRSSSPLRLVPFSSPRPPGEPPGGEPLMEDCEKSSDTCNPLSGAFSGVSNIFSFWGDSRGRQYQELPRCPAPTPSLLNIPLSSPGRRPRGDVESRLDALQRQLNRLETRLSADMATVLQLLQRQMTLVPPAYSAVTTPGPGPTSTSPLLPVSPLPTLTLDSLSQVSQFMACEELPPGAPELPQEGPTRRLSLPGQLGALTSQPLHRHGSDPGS
# Text: The design of these isomannide-detived NBTIs focused on enhanced polarity and modulation of basicity through the two electronegative oxygen atoms in the linker.
# [1] = test system: Enterococcus faecium DRL-4193; test: MIC panel (Laboratory Specialists, Inc.), E. faecium DRL-4193; type: cell-based; details: DRL4193, Cmpd. 6, vancomycin-susceptible strain
# [2] = test system: Streptococcus pyogenes LSI-1235; test: MIC panel (Laboratory Specialists, Inc.), S. pyogenes; type: cell-based; details: LSI1235, Cmpd. 6, CLSI broth microdilution
# CYP2D6 = target: T4, CYP2D6 (Homo sapiens, UniProt P10635); test: CYP450 inhibition in human liver microsomes, CYP2D6; type: in vitro ADME; details: 10 μM
# T4 construct: incubated with human liver microsomes (mixed gender, pool of 50 donors, 0.1 mg/mL); from tissue; host or cells: human liver microsomes, pool of 50 donors
# T4 sequence (P10635 whole entry): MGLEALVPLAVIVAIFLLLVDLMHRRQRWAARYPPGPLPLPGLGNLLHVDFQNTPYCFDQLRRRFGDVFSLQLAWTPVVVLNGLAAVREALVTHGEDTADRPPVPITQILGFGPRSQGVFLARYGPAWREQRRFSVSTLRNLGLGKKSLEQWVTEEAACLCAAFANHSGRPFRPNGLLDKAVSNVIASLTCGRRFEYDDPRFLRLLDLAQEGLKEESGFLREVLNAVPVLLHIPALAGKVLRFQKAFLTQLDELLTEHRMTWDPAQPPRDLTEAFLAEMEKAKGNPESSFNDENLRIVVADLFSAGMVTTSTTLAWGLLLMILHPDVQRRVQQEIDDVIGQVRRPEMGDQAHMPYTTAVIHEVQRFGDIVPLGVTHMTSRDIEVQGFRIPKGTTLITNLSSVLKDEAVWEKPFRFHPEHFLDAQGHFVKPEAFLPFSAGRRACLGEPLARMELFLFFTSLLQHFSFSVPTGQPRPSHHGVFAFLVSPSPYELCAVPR
# Procedure: as §1
# [3] = test system: Streptococcus pneumoniae LSI-4234; test: MIC panel (Laboratory Specialists, Inc.), S. pneumoniae LSI-4234; type: cell-based; details: LSI4234, Cmpd. 6, penicillin-susceptible strain
# S. aureus ATCC 29213 = test: MIC, CLSI broth microdilution, S. aureus ATCC 29213; type: cell-based; details: Staphylococcus aureus, ATCC29213
# [4] = test system: Escherichia coli ATCC 25922; test: MIC panel (Laboratory Specialists, Inc.), E. coli; type: cell-based; details: ATCC25922, read-out: MIC Escherichia coli ATCC 25922 (n = 2), Cmpd. 6, CLSI broth microdilution
# physchem = type: physicochemical; details: aqueous buffer, kinetic from dmso stock; buffered aqueous solution (pH 7.4)
# Procedure: Test compounds were prepared at 10 mM in 100% DMSO and diluted into aqueous buffer, pH 7.4, to achieve a final test compound concentration of 100 μM with a final DMSO concentration of 1%. Caffeine and tamoxifen were assayed as control compounds. The samples were shaken for 90 minutes at room temperature and then filtered through a 0.4 μm filter plate. Filtrates were collected and analyzed using LC-MS/MS.
# Nav site 2 = test: Off-target safety panel, Nav site 2; type: binding; details: duplicate
# Procedure: (§2) Potential off-target pharmacology for compound 6 was also evaluated by screening in duplicate against a panel (Bowes, J., et al., Reducing Safety-Related Drug Attrition: The Use of in vitro Pharmacological Profiling. Nat. Rev. Drug Disc. 2012, 11, 909-922) of 44 receptors, enzymes, etc. Of the 44 potential targets, only five were inhibited by >50% at a concentration of 100 μM (Table 7).
# [5] = 100 μM
# Procedure: as §2
# [6] = test system: Enterobacter cloacae LSI-2943; test: MIC panel (Laboratory Specialists, Inc.), E. cloacae; type: cell-based; details: LSI2943, Cmpd. 6, CLSI broth microdilution
# [7] = test system: Enterococcus faecalis ATCC 29212; test: MIC panel (Laboratory Specialists, Inc.), E. faecalis; type: cell-based; details: ATCC29212, Cmpd. 6, CLSI broth microdilution
# in vitro = in vitro ADME; details: pH 7.4, 10 μM, equilibrium dialysis
# Procedure: In this assay an equilibrium dialysis technique was used to separate unbound test compound from compound bound to proteins. The plasma was spiked with the test compound at 10 μM with a final DMSO concentration of 1%. The dialysate compartment was loaded with phosphate buffered saline (PBS, pH 7.4) and the sample side was loaded with equal volume of the spiked plasma, After incubation at 37° C. for 4 hours, samples were removed from each plasma and buffer chamber; plasma protein was removed by treatment with acetonitrile. Recovered samples were analyzed using LC-MS.
smiles,measurement,setting,value
"COc1ccc2ncc(F)c(CC[C@@]3(O)CO[C@@H]4[C@@H](NCc5cc6c(cn5)OCCO6)CO[C@@H]43)c2n1 [Compound 6, (3R, 3aS,6S,6aR)-6-(((2,3-dihydro-[1,4]dioxino[2,36-c]pyridin-7-yl)methyl)amnino)-3-(2-(3-fluoro-6-methoxy-1,5-naphthyridin-4-yl)ethyl)hexahydrofuro[3,2-b]furan-3-ol]",CYP2B6 inhibition,CYP2B6,Less than 50%
same,inhibition at 3 µM,hKCNQ1/hminK; 3 μM,-2.9%
same,inhibition at 30 µM,hKCNQ1/hminK; 30 μM,1.5%
same,inhibition at 100 µM,hKCNQ1/hminK; 100 μM,22.1%
same,CYP2C9 inhibition,CYP2C9,Less than 50%
same,hERG IC50 higher than benzodioxine 24,hERG,ca. 3 fold
same,MIC,[1],2 µg/mL
same,MIC,[2],≤ 0.12 µg/mL
same,CYP2D6 inhibition,CYP2D6,Less than 50%
same,MIC,[3],≤ 0.12 µg/mL
same,MIC,"S. aureus ATCC 29213; CLSI broth microdilution, triplicate, read-out: MIC ATCC 29213",1 to 4 µg/mL
same,MIC,"S. aureus ATCC 29213; same MIC expressed in μM, read-out: MIC for S. aureus ATCC 29213",2 to 8 µM
same,MIC,[4],64 µg/mL
same,solubility kinetic,physchem,76.2 µM
same,"% Inhibition at 100 μM conc., Nav site 2",Nav site 2,78%
same,number of the 44 potential targets inhibited by >50%,[5],five
same,MIC,[6],16 µg/mL
same,MIC,[7],2 µg/mL
same,fraction unbound,in vitro; human plasma,0.138
same,fraction unbound,in vitro; mouse plasma,0.047
